Data as given in PubChem BioAssay (NCI).
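These data come from cells grown in 96-well plates and exposed to compound for 48 hours at five concentrations. Definition used: TGI = concentration required for complete inhibition of growth.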

Columns and labels:
Assay in all cases: inhibition of tumour cell growth, NCI panel, 48 h
[1] = tested on: 786-0 renal
[2] = tested on: A498 renal
[3] = tested on: A549 NSCLC
[4] = tested on: ACHN renal
[5] = tested on: BT-549 breast
[6] = tested on: CAKI-1 renal
[7] = tested on: CCRF-CEM leukemia
[8] = tested on: COLO 205 colon
[9] = tested on: DU-145 prostate
[10] = tested on: EKVX NSCLC
[11] = tested on: HCT-116 colon
[12] = tested on: HCT-15 colon
[13] = tested on: HL-60(TB) leukemia
[14] = tested on: HOP-62 NSCLC
[15] = tested on: HOP-92 NSCLC
[16] = tested on: HS 578T breast
[17] = tested on: HT29 colon
[18] = tested on: IGROV1 ovarian
[19] = tested on: K-562 leukemia
[20] = tested on: KM12 colon
[21] = tested on: LOX IMVI melanoma
[22] = tested on: M14 melanoma
[23] = tested on: MALME-3M melanoma
[24] = tested on: MCF7 breast
[25] = tested on: MDA-MB-231 breast
[26] = tested on: MDA-MB-435
[27] = tested on: MDA-N
[28] = tested on: MOLT-4 leukemia
[29] = tested on: NCI-H226 lung
[30] = tested on: NCI-H23 lung
[31] = tested on: NCI-H460 lung
[32] = tested on: NCI-H522 lung
[33] = tested on: NCI/ADR-RES ovarian
[34] = tested on: OVCAR-3 ovarian
[35] = tested on: OVCAR-4 ovarian
[36] = tested on: OVCAR-5 ovarian
[37] = tested on: OVCAR-8 ovarian
[38] = tested on: PC-3 prostate
[39] = tested on: RPMI-8226 leukemia
[40] = tested on: RXF 393 renal
[41] = tested on: SF-268 CNS
[42] = tested on: SF-295 CNS
[43] = tested on: SF-539 CNS
[44] = tested on: SK-MEL-2 melanoma
[45] = tested on: SK-MEL-28 melanoma
[46] = tested on: SK-MEL-5 melanoma
[47] = tested on: SK-OV-3 ovarian
[48] = tested on: SN12C renal
[49] = tested on: SNB-19 CNS
[50] = tested on: SNB-75 CNS
[51] = tested on: SR leukemia
[52] = tested on: SW-620 colon
[53] = tested on: T-47D breast
[54] = tested on: TK-10 renal
[55] = tested on: U251 CNS
[56] = tested on: UACC-257 melanoma
[57] = tested on: UACC-62 melanoma
[58] = tested on: UO-31 renal
[59] = tested on: HCC-2998 colon

`COc1cc2c(cc1OC)C(CCN)=NCC2` showed a TGI [1] of 18.4 µM, a TGI [2] of 62.8 µM and a TGI [3] greater than 100 µM. It also gave a TGI [4] of 31.7 µM, a TGI [5] of 33.6 µM and a TGI [6] of 25.2 µM. It also gave a TGI [7] of 5.12 µM, a TGI [8] of 27.4 µM and a TGI [9] of 32.9 µM. It also gave a TGI [10] of 59 µM, a TGI [11] of 33.7 µM and a TGI [12] of 38.9 µM. It also gave a TGI [13] of 2.06 µM, a TGI [14] greater than 57.4 µM and a TGI [15] of 15.1 µM. The TGI [16] was 59.9 µM, the TGI [17] was 41.3 µM and the TGI [18] was 52 µM. The TGI [19] was 43.3 µM, the TGI [20] was 40.2 µM and the TGI [21] was 36.7 µM. It also gave a TGI [22] of 32.8 µM, a TGI [23] of 33.1 µM and a TGI [24] of 40.2 µM. It also gave a TGI [25] of 30.8 µM, a TGI [26] of 31.4 µM and a TGI [27] of 30.5 µM. For the same compound, the TGI [28] was 43 µM, the TGI [29] was greater than 64.4 µM and the TGI [30] was 34.3 µM. The TGI [31] was greater than 100 µM, the TGI [32] was 10.3 µM and the TGI [33] was greater than 69 µM. The TGI [34] was 35.2 µM, the TGI [35] was 47.4 µM and the TGI [36] was greater than 57.8 µM. For the same compound, the TGI [37] was 33.1 µM, the TGI [38] was 29.6 µM and the TGI [39] was 29.9 µM. The TGI [40] was 30.4 µM, the TGI [41] was 36.3 µM and the TGI [42] was greater than 100 µM. For the same compound, the TGI [43] was 16.6 µM, the TGI [44] was 31.9 µM and the TGI [45] was 33.2 µM. It also gave a TGI [46] of 35.6 µM, a TGI [47] greater than 100 µM and a TGI [48] of 35.1 µM. For the same compound, the TGI [49] was greater than 100 µM, the TGI [50] was 33 µM and the TGI [51] was 23.8 µM. It also gave a TGI [52] of 17.1 µM, a TGI [53] of 31.1 µM and a TGI [54] of 22.8 µM. For the same compound, the TGI [55] was 30.8 µM, the TGI [56] was 32.9 µM and the TGI [57] was 34.4 µM. The TGI [58] was 4.2 µM.
For `O=[N+]([O-])c1ccc2c(c1)nc1n2C(c2c(F)cccc2F)SC1` (centres undefined), the TGI [1] was greater than 100 µM, the TGI [3] was greater than 100 µM and the TGI [4] was greater than 100 µM. For the same compound, the TGI [5] was greater than 100 µM, the TGI [6] was greater than 100 µM and the TGI [7] was greater than 100 µM. The TGI [8] was greater than 100 µM, the TGI [9] was greater than 100 µM and the TGI [10] was greater than 100 µM. It also gave a TGI [59] greater than 100 µM, a TGI [11] greater than 100 µM and a TGI [12] greater than 100 µM. For the same compound, the TGI [13] was greater than 100 µM, the TGI [14] was greater than 100 µM and the TGI [15] was greater than 100 µM. The TGI [16] was greater than 100 µM, the TGI [17] was greater than 100 µM and the TGI [18] was greater than 100 µM. The TGI [19] was greater than 100 µM, the TGI [20] was greater than 100 µM and the TGI [21] was greater than 100 µM. It also gave a TGI [22] greater than 100 µM, a TGI [23] greater than 100 µM and a TGI [24] greater than 100 µM. For the same compound, the TGI [25] was greater than 100 µM, the TGI [26] was greater than 100 µM and the TGI [27] was greater than 100 µM. For the same compound, the TGI [28] was greater than 100 µM, the TGI [30] was greater than 100 µM and the TGI [31] was greater than 100 µM. For the same compound, the TGI [32] was greater than 100 µM, the TGI [33] was greater than 100 µM and the TGI [34] was greater than 100 µM. The TGI [35] was greater than 100 µM, the TGI [36] was greater than 100 µM and the TGI [37] was greater than 100 µM. The TGI [38] was greater than 100 µM, the TGI [39] was greater than 100 µM and the TGI [40] was greater than 100 µM. The TGI [41] was greater than 100 µM, the TGI [42] was greater than 100 µM and the TGI [43] was greater than 100 µM. The TGI [44] was greater than 100 µM, the TGI [45] was greater than 100 µM and the TGI [46] was greater than 100 µM. For the same compound, the TGI [47] was greater than 100 µM, the TGI [48] was greater than 100 µM and the TGI [49] was greater than 100 µM. For the same compound, the TGI [50] was greater than 100 µM, the TGI [51] was greater than 100 µM and the TGI [52] was greater than 100 µM. The TGI [53] was greater than 100 µM, the TGI [54] was greater than 100 µM and the TGI [55] was greater than 100 µM. It also gave a TGI [56] greater than 100 µM, a TGI [57] greater than 100 µM and a TGI [58] greater than 100 µM.
For `Cc1ccc([N+](=O)[O-])cc1S(=O)(=O)Nc1ccc(C2=NN(S(=O)(=O)c3cc([N+](=O)[O-])ccc3C)C(c3cccs3)C2)cc1` (centres undefined), the TGI [1] was greater than 100 µM, the TGI [2] was 78.6 µM and the TGI [3] was greater than 100 µM. For the same compound, the TGI [4] was greater than 100 µM, the TGI [5] was greater than 100 µM and the TGI [6] was greater than 100 µM. It also gave a TGI [8] of 25.3 µM, a TGI [9] greater than 100 µM and a TGI [10] greater than 100 µM. It also gave a TGI [59] of 56.6 µM, a TGI [11] of 77 µM and a TGI [12] greater than 100 µM. For the same compound, the TGI [13] was greater than 100 µM, the TGI [14] was greater than 100 µM and the TGI [15] was greater than 100 µM. For the same compound, the TGI [16] was 53.7 µM, the TGI [17] was greater than 100 µM and the TGI [18] was greater than 100 µM. For the same compound, the TGI [19] was 88.3 µM, the TGI [20] was greater than 100 µM and the TGI [21] was greater than 100 µM. The TGI [22] was greater than 100 µM, the TGI [23] was greater than 100 µM and the TGI [24] was 82.1 µM. The TGI [25] was greater than 100 µM, the TGI [26] was greater than 100 µM and the TGI [27] was greater than 100 µM. The TGI [28] was 89.3 µM, the TGI [29] was greater than 100 µM and the TGI [30] was 59.9 µM. For the same compound, the TGI [31] was 94.6 µM, the TGI [32] was 79.5 µM and the TGI [33] was greater than 100 µM. For the same compound, the TGI [34] was 52.6 µM, the TGI [35] was greater than 100 µM and the TGI [36] was greater than 100 µM. It also gave a TGI [37] greater than 100 µM, a TGI [38] greater than 100 µM and a TGI [39] of 67.6 µM. For the same compound, the TGI [40] was greater than 100 µM, the TGI [41] was 75 µM and the TGI [42] was 69.2 µM. For the same compound, the TGI [44] was 69.2 µM, the TGI [45] was greater than 100 µM and the TGI [46] was greater than 100 µM. The TGI [47] was greater than 100 µM, the TGI [48] was greater than 100 µM and the TGI [49] was greater than 100 µM. For the same compound, the TGI [50] was greater than 100 µM, the TGI [51] was 66.1 µM and the TGI [52] was greater than 100 µM. It also gave a TGI [53] greater than 100 µM, a TGI [54] greater than 100 µM and a TGI [55] greater than 100 µM. It also gave a TGI [56] greater than 100 µM, a TGI [57] of 47.5 µM and a TGI [58] greater than 100 µM.
Compound `O=C(O)c1cccc([As]=[As]c2cccc(C(=O)O)c2)c1` (centres undefined) has a TGI [1] of 71.1 µM, a TGI [2] of 75.7 µM and a TGI [3] greater than 100 µM. It also gave a TGI [4] greater than 100 µM, a TGI [5] greater than 100 µM and a TGI [6] of 37.1 µM. It also gave a TGI [7] of 79 µM, a TGI [8] greater than 100 µM and a TGI [9] greater than 100 µM. It also gave a TGI [10] greater than 100 µM, a TGI [59] greater than 100 µM and a TGI [11] greater than 100 µM. For the same compound, the TGI [12] was greater than 100 µM, the TGI [14] was greater than 100 µM and the TGI [15] was 37.4 µM. For the same compound, the TGI [16] was 90.8 µM, the TGI [17] was greater than 100 µM and the TGI [18] was greater than 100 µM. The TGI [19] was greater than 100 µM, the TGI [20] was greater than 100 µM and the TGI [21] was 69.6 µM. The TGI [22] was greater than 100 µM, the TGI [23] was 43.9 µM and the TGI [24] was greater than 100 µM. It also gave a TGI [25] of 39.9 µM, a TGI [26] greater than 100 µM and a TGI [27] greater than 100 µM. It also gave a TGI [28] of 95.1 µM, a TGI [29] greater than 100 µM and a TGI [30] greater than 100 µM. For the same compound, the TGI [31] was greater than 100 µM, the TGI [32] was 35.7 µM and the TGI [33] was greater than 100 µM. For the same compound, the TGI [34] was greater than 100 µM, the TGI [35] was greater than 100 µM and the TGI [36] was 53.8 µM. The TGI [37] was greater than 100 µM, the TGI [38] was 36.7 µM and the TGI [39] was 59.5 µM. The TGI [40] was 81.8 µM, the TGI [41] was 72.7 µM and the TGI [42] was greater than 100 µM. It also gave a TGI [43] of 39.1 µM, a TGI [44] of 55.6 µM and a TGI [45] greater than 100 µM. For the same compound, the TGI [46] was 96.1 µM, the TGI [48] was greater than 100 µM and the TGI [49] was greater than 100 µM. For the same compound, the TGI [50] was greater than 100 µM, the TGI [51] was 89.5 µM and the TGI [52] was greater than 100 µM. The TGI [53] was greater than 100 µM, the TGI [54] was 57.1 µM and the TGI [55] was 35.5 µM. The TGI [56] was greater than 100 µM, the TGI [57] was greater than 100 µM and the TGI [58] was greater than 100 µM.
